One assay relates to τ protein. As to the kind of experiment: τ protein phosphorylation induced by Aβ1-42 in rat hippocampus section, Western blotting. The assay is classed as cell-based. The settings on record: Aβ1-42 1 μM for 3 hr, DCP-LA 100 nM, FIG. 5. On the procedure:
(§1) A rat hippocampus section (male Wister rat, 6-week-old, 400 μm) was incubated in an artificial cerebrospinal fluid (117 mM NaCl, 3.6 mM KCl, 1.2 mM NaH2PO4, 1.2 mM MgCl2, 2.5 mM CaCl2, 25 mM NaHCO3, and 11.5 mM glucose) oxygenated with 95% O2 and 5% CO2, in the presence or absence of DCP-LA (100 nM) at 34° C. for 3 min. In another experiment set, the section was incubated with Aβ1-42 (1 μM) for 3 hr in the presence or absence of DCP-LA (100 nM). After incubation, the section was homogenized by sonication in an ice-cooled cell lysis buffer containing 1% (v/v) protease inhibitor cocktail and 1% (v/v) phosphatase inhibitor cocktail, and the homogenate was centrifuged (3,000 rpm, 5 min, 4° C.). The protein concentration of the supernatant was measured using BCA protein assay kit (Thermo Fisher Scientific, Rockford, Ill., USA). The protein was separated by SDS-polyacrylamide gel electrophoresis (SDS-PAGE), and transferred onto polyvinylidene difluoride membranes. […]
(§2) After washing, the membranes were reacted with horseradish peroxidase-conjugated goat anti-mouse IgG antibody or goat anti-rabbit IgG antibody. The immunoreactivity was detected using ECL kit (GE Healthcare, Piscataway, N.J., USA), and visualized using a chemical luminescence detection system (chemiluminescence detection system; GE Healthcare).

For another assay, the target named is T1, Human PTP1B (Homo sapiens, UniProt P18031).
T1 construct: made in house; host or cells: E. coli BL21 (DE3)
T1 sequence (P18031 1-435): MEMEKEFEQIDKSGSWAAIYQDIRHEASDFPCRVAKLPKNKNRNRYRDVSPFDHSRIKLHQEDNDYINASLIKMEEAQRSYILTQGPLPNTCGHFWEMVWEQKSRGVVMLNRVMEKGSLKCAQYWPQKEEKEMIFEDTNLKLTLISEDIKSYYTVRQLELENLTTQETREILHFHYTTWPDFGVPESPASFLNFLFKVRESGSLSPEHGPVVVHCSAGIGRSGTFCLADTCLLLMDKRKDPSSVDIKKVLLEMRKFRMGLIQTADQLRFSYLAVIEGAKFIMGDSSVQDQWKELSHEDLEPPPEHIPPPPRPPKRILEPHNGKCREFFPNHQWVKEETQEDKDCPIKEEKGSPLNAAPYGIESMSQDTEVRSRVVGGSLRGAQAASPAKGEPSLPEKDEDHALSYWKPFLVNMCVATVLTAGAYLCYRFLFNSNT
As to the kind of experiment: Assay of PTP1B activity under cell-free conditions (p-NPP dephosphorylation). The assay is classed as biochemical. Conditions: DCP-LA 1-100 μM, p-NPP 10 mM, FIG. 1. On the procedure:
Protein tyrosine phosphatase was measured under cell-free conditions by a method partially modified from the methods described in previous reports (Baba Y, et al. J Am Chem Soc 2003; 125; 9740-9749; Rice R L, et al. Biochemistry 1997; 36: 15965-15974). Human PTP1B was cloned to a pGEX-6P-3 vector having a GST tag at the NH2 terminus, and expressed in competent E. coli BL21 (DE3) suitable for transformation and protein expression. GST fusion PTP1B was affinity-purified using glutathione sepharose 4B (GE Healthcare Bio-Science KK, Tokyo, Japan). It was reacted with p-nitrophenylphosphate (p-NPP) (Sigma, St. Louis, Mo., USA) as a substrate and PTP1B activity was measured. The enzyme was pre-incubated in a reaction medium [50 mM HEPES, 1 mM EDTA, 50 mM NaCl, 1 mM dithiothreitol, pH 7.2] at 37° C. for 30 min in the presence or absence of DCP-LA at a given concentration (1-100 μM) and with or without addition of Na3VO4 which is a PTP1B inhibitor. Then, p-NPP (10 mM) was added to the reaction medium, and the mixture was incubated for 60 min. The reaction was discontinued by the addition of 0.1N NaOH. Dephosphorylated p-NPP, i.e., p-NP, was quantified at an absorbance of 405 nm by using SpectraMax PLUS384 (Molecular Devices, Sunnyvale, Calif., USA).

The subject of another assay is GSK-3β. As to the kind of experiment: GSK-3β phosphorylation in rat hippocampus section, Western blotting. Conditions: 100 nM, 3 min, FIG. 4. The assay is classed as cell-based. On the procedure: as §1, §2
Background: Immunoblotting shows a protein as a band on a membrane.

A further assay has as its target T2, human recombinant PKCε (Homo sapiens, UniProt Q02156).
T2 construct: His; purchased Calbiochem
T2 sequence (Q02156 1-737): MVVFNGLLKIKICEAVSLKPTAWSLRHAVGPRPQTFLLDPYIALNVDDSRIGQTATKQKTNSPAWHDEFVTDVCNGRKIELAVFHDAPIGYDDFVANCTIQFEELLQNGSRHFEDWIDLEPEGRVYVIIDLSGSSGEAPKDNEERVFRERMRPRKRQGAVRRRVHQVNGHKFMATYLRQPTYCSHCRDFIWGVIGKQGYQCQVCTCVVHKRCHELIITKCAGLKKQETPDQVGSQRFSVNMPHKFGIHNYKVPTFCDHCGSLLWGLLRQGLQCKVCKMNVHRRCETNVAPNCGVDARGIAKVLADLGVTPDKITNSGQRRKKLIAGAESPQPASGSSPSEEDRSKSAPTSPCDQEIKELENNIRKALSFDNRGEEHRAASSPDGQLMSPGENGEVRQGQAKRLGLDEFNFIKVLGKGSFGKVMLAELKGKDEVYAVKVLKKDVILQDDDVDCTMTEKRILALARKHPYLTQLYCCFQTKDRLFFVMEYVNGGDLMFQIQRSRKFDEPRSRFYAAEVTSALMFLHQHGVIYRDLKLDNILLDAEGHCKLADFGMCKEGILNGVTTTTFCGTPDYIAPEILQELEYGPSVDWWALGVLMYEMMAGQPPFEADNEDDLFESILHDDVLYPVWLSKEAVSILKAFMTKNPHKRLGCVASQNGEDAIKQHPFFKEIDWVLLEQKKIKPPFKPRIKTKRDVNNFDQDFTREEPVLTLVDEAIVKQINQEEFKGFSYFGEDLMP
As to the kind of experiment: GSK-3β assay under cell-free conditions with PKCε. The assay is classed as biochemical. Conditions: FIG. 7. On the procedure: Human recombinant GSK-3β (Sigma, St. Louis, Mo., USA) was reacted with His-tagged human recombinant PKCε (Calbiochem, San Diego, Calif., USA) under cell-free conditions in the presence or absence of a given concentration (1-100 μM) of DCP-LA, and with or without addition of GF109203X, in a culture medium containing 20 mM Tris-HCl (pH 7.5), 5 mM Mg-acetate, 12.5 mM glycerol 2-phosphate and 250 μM ATP at 30° C. for 20 min. The protein was separated by SDS-polyacrylamide gel electrophoresis (SDS-PAGE), and transferred on a polyvinylidene difluoride membrane. The blotting membrane was blocked with TBS-T [150 mM NaCl, 0.1% (v/v) Tween20 and 20 mM Tris, pH 7.5] containing 5% (w/v) BSA, and sequentially reacted with anti-serine 9 phosphorylated GSK-3β antibody (Cell Signaling Technology, Inc., Danvers, Mass., USA) or anti-GSK-3β antibody (Cell Signaling Technology, Inc., Danvers, Mass., USA). After washing, the membrane was reacted with horseradish peroxidase conjugated goat anti-mouse IgG antibody or goat anti-rabbit IgG antibody. The immunoreactivity was detected using ECL kit (GE Healthcare, Piscataway, N.J., USA), and visualized using a chemical luminescence detection system (chemiluminescence detection system; GE Healthcare).

The test system of a further assay is 5XFAD mouse. As to the kind of experiment: Water maze test in 5XFAD mouse. The settings on record: oral, 30 min before water maze test, daily, DCP-LA 1 mg/kg, galanthamine 2.5 mg/kg, FIG. 6. The assay is classed as in vivo. From the text: XFAD transgenic mouse is an animal model of Alzheimer's disease (AD), and contains five mutations of familial Alzheimer's disease (FAD) [Swedish, Florida and London mutations of human amyloid precursor protein (APP), and M146L and L286V mutations of presenilin (PS); Oakley H et al., J. Neurosci. 2006; 26: 10129-10140]. In 5XFAD mouse, Swedish mutation increases production of total amyloid β peptide (Aβ), and the remaining mutations particularly promote production of Aβ1-42.
5XFAD mouse was purchased from The Jackson Laboratory (Bar Harbor, Me., USA), and maintained by crossing with heterozygous transgenic mouse with B6/SJLF1 breeding stock. Non-transgenic wild-type litter-mate was used as a control. All experiments were performed at the age of 5.5-6.5 months.
A circular plastic water tank (diameter 90 cm, depth 36 cm) was used. The inside of the water tank was completely painted in white, and water containing White India ink was filled up to 20 cm from the bottom (22-25° C.). A platform (diameter 11 cm) painted in white was placed in water such that it was 1 cm below the water surface. The water tank was placed in a test room, and several marks seen by the mouse from the water tank were put thereon. During the test, the position of the marks was not changed. A platform was placed a predetermined position from the equal distance from the center and the end of the water tank, namely, center of one quadrant. At one of the randomly selected 3 points, the mouse was released facing the wall of the water tank, and the time necessary for evacuating on the platform (acquisition latency) was measured. When smoothly evacuated, the mouse was left on the platform for 10 seconds. […] The test was performed twice a day, and the second test was started at 30 seconds after the first test. The test was continuously performed for 8 days, and the mean (±SEM) of acquisition latency of continuous 2 days until the mouse reached the platform was calculated. After 7 days, the platform was removed and the time necessary for reaching the place where the platform was located (retention latency) was measured.
DCP-LA and galanthamine were dissolved in polyethylene glycol (PEG). DCP-LA, galanthamine and PEG were administered with an oral gavage needle 30 min before the water maze test.

For another assay, the system named is Akt. As to the kind of experiment: Akt activation in rat hippocampus section, Western blotting. The assay is classed as cell-based. Conditions: 100 nM, 3 min, FIG. 3. The procedure: as §1, §2

For the molecule `CCCCCC1CC1CC1CC1CCCCCCCC(=O)O` (stereo not shown) [DCP-LA, 8-[2-(2-Pentyl-cyclopropylmethyl)-cyclopropyl]-octanoic acid], the “Ser202/Thr205 phosphorylation of τ protein induced by Aβ1-42 relative to total τ protein” value with τ protein is recorded as “suppresses phosphorylation of τ protein induced by Aβ1-42”. Besides, the “PTP1B inhibition (phosphatase activity, percentage of control)” value at Human PTP1B was “inhibits PTP1B in a concentration-dependent manner”. Besides, the “Ser9 phosphorylation of GSK-3β relative to total GSK-3β” value with GSK-3β is “phosphorylates (inactivates) GSK-3β”. Further, the “Ser9 phosphorylation of GSK-3β by PKCε” value at human recombinant PKCε (PKCε 1 μg/ml, DCP-LA 1-100 μM) is “phosphorylates (inactivates) GSK-3β in the presence of PKCε”. In addition, in the assay with 5XFAD mouse, the acquisition latency result was “improved extension of both latencies to nearly normal levels” and the retention latency result was “improved extension of both latencies to nearly normal levels”. Moreover, the “Akt activation (phosphorylation of Thr308 and Ser473 relative to total Akt)” value in the assay with Akt is “has an action to activate Akt”.

As for `CN(C)CCCn1cc(C2=C(c3c[nH]c4ccccc34)C(=O)NC2=O)c2ccccc21` [GF109203X, reference compound], the “suppression of DCP-LA/PKCε-induced Ser9 phosphorylation of GSK-3β” value on human recombinant PKCε (GF109203X 100 nM in the presence of DCP-LA and PKCε) is “phosphorylation is suppressed by GF109203X”.

Regarding `COc1ccc2c3c1O[C@H]1C[C@@H](O)C=C[C@@]31CCN(C)C2` [galanthamine, reference compound], in the assay on 5XFAD mouse, the acquisition latency entry is listed as “showed no effect” and the retention latency result is on record as “showed no effect”.

The values are drawn from patent US9603821B2, “Inhibitor of τ protein phosphorylation” (NISHIZAKI BIOINFORMATION RESEARCH INSTITUTE, priority 2013, dated 2017).
